The results in this text go back to the Bradley open melting point set (2014).

Values joined by “and” are separate entries in the source; they are usually repeats but may differ in a detail not shown here. Equal entries are not always repeated.

By melting point is commonly meant the temperature of the solid-liquid transition. `CCCc1ccc(-c2ccc(C(=O)O)cc2)cc1` [4'-n-propylbiphenyl-4-carboxylic acid] registered a melting point of 226 °C.

Compound `O=C(Cc1ccccc1)Cc1ccccc1` [1,3-diphenylacetone] gave a melting point of 33 °C.

`CCc1nnc2cc(-c3ccccc3)[nH]n12` [3-ethyl-6-phenyl-5H-pyrazolo[5,1-c][1,2,4]triazole]: the melting point turned out to be 189 °C.

On to `CN(C)c1ccc(N)cc1` [N,N-dimethyl-p-phenylenediamine], for which the melting point came out at 36 °C.

Regarding `CCCCCCOC(C)=O` [hexyl_acetate], the melting point is -80 °C.

The compound `C#C[C@]1(O)CC[C@H]2[C@@H]3CCC4=CC(=O)CC[C@@H]4[C@H]3CC[C@@]21CC` [Norgestrel] returned a melting point of 206 °C.

`Cc1cccc(O)c1` [m-cresol] had a melting point of 12 °C.

Compound `C(=C/c1ccccc1)/c1ccccc1` [cis-stilbene] returned a melting point of 2 °C.

Turning to `CCCCC/C=C\C/C=C\CCCCCCCC(=O)O` [linoleic acid], the melting point was -12 °C.

The compound `O=C(O)c1cnc(Br)s1` [2-bromothiazole-5-carboxylic acid] displayed a melting point of 182 °C.

In turn, `Cc1c(N)cccc1N` [2,6-diaminotoluene] returned a melting point of 97 °C.

`O=Cc1ccnc(Cl)c1` [2-chloropyridine-4-carboxaldehyde] came in with a melting point of 48 °C.

Compound `Cc1cccc(N)c1C` [2,3-dimethylaniline] gave a melting point of 3 °C.

For `CC(C)(C)Cl` [tert-butyl chloride], the melting point is -26 °C.

Compound `c1cc2cccc3c4cccc5cccc(c(c1)c23)c54` [Perylene] registered a melting point of 278 °C.

In the case of `CN(C)c1ccccc1` [n,n-dimethylaniline], the melting point was 3 °C.

Regarding `Oc1ccc(-c2ccccc2)cc1` [Biphenyl-4-ol], the melting point came out at 167 °C.

In the case of `O=C(c1ccccc1)c1ccccn1` [2-benzoylpyridine], the melting point worked out at 43 °C.

Turning to `O=Cc1ccco1` [furfuraldehyde], the melting point is -36.5 °C.

Compound `CCCCOC(=O)c1ccc(O)cc1` [butylparaben] showed a melting point of 68.5 °C.

Compound `ICCI` [1,2-diiodoethane] yielded a melting point of 81 °C.

Consider `C[C@@H](CO)NC(=O)OC(C)(C)C` [N-boc-L-alaninol], for which the melting point worked out at 59 °C.

On to `CC(=O)OC[C@H]1O[C@@H](OC(C)=O)[C@H](OC(C)=O)[C@@H]1OC(C)=O` (stereo in doubt) [beta-D-ribofuranose 1,2,3,5-tetraacetate], for which the melting point was determined as 82 °C.

Turning to `CCOC(=O)c1cc(C)n(-c2ccc(C)cc2)c1C` [OSM-S-30], the melting point came to 61 °C.

As for `CCCCc1ccccc1` [N-butylbenzene], the melting point was -88 °C.

`O=Cc1c(-c2ccccc2)nc2n1CCS2` [2,3-dihydro-6-phenylimidazo[2,1-b]thiazole-5-carboxaldehyde] registered a melting point of 123 °C.

In the case of `COc1ccc(-c2nnn[nH]2)cc1` [5-(4-methoxyphenyl)-1h-tetrazole], the melting point turned out to be 237 °C.

Take `COC1=C(OC)/C(=C/C2CCC=CC23OC(=O)C(OC)=C3OC)OC1=O` (stereo unspecified): the melting point was found to be 119 °C.

`CCCN` [1-propylamine]: the melting point was -83 °C.

Regarding `CC(=O)/N=c1\sc(C(C)=O)nn1-c1ccc(F)cc1`, the melting point came out at 158 °C.

With `CCCCCCCCCCCCc1ccccc1` [Dodecylbenzene], the melting point is -7 °C.

`COC(=O)c1ccc(O)cc1` [methyl-p-hydroxybenzoate] gave a melting point of 131 °C.

In turn, `CN(C)c1ccc(/C=C/C=O)cc1` [(2E)-3-[4-(Dimethylamino)phenyl]acrylaldehyde] had a melting point of 135 °C.

In the case of `Cc1ccc(Cl)cc1Cl` [2,4-dichlorotoluene], the melting point was -13 °C.

With `CSc1cnccn1` [2-(methylthio)pyrazine], the melting point is 44 °C.

Compound `Clc1cc(Cl)cc(Cl)c1` [1,3,5-trichlorobenzene] came in with a melting point of 64 °C.

`C[C@]12CCC(=O)C=C1CC[C@@H]1[C@@H]2C(O)C[C@@]2(C)[C@H]1CC[C@]2(O)C(=O)CO` (stereo partly specified) [11,17,21-Trihydroxypregn-4-ene-3,20-dione] showed a melting point of 223 °C.

On to `O=S(Cl)Cl` [Thionyl dichloride], for which the melting point was -104 °C.

`Cc1cc(NS(=O)(=O)c2ccc(N)cc2)nc(C)n1` [sulfisomidine] returned a melting point of 243 °C.

`CC(=O)Nc1c(Br)cc(N)cc1Br` [4'-amino-2',6'-dibromoacetanilide] showed a melting point of 248 °C.

For the compound `[2H]c1c([2H])c2c([2H])c([2H])c3c([2H])c([2H])c([2H])c4c([2H])c([2H])c(c1[2H])c2c34` [(~2~H_10_)Pyrene], the melting point was 156 °C.

As for `CC(Oc1ccc(Cl)cc1Cl)C(=O)O` (stereo unspecified) [2-(2,4-dichlorophenoxy)propionic acid], the melting point turned out to be 114 °C.

The compound `Nc1ccc(Oc2ccccc2)cc1` [4-phenoxyaniline] showed a melting point of 84 °C.

With `[C-]#[O+]` [Carbon monooxide], the melting point is -205 °C.

Regarding `C=CCC` [1-butene], the melting point was -185 °C.

In the case of `NC1=NCCS1` [2-amino-2-thiazoline], the melting point amounted to 80 °C.

Regarding `CC(=O)SCC(Cc1ccccc1)C(=O)NCC(=O)OCc1ccccc1` (stereo unspecified) [acetorphan], the melting point was found to be 89 °C.

With `CC(Cl)C(=O)O` (stereo unspecified) [2-Chloropropanoic acid], the melting point is -13 °C.

As to `c1ccsc1` [thiophene], the melting point is -38 °C (3×) and -38.2 °C and -38.3 °C (2×).

For the compound `O=Cc1cccc(C(=O)O)c1` [m-formyl_benzoic_acid], the melting point came to 175 °C.

The compound `Nc1c(Br)cc(Br)cc1C(=O)O` [2-amino-3,5-dibromobenzoic acid] came in with a melting point of 233 °C.

Regarding `COc1cc(OC)c2c(c1)C(O)OC2=O` (stereo unspecified) [3-hydroxy-5,7-dimethoxy-2-benzofuran-1(3H)-one], the melting point is 185 °C.

For `COc1ccc(B(O)O)cc1` [4-methoxybenzeneboronic acid], the melting point is 205 °C.

Compound `Sc1ccccn1` [Pyridine-2-thiol] came in with a melting point of 129 °C.

With `CCCC(=O)O` [Butyric acid], the melting point is -5 °C.

The compound `O=C(O)[C@@H]1CCCN1C(=O)OCc1ccccc1` [N-Cbz-L-proline] yielded a melting point of 77 °C.

Consider `CCc1ccccc1O` [2-Ethylphenol], for which the melting point is -28 °C.

For the compound `CCCCCOC(C)=O` [amyl_acetate], the melting point is -100 °C.

`Cc1cc[n+]([O-])cc1C(N)=O` [4-methylpyridine-3-carboxamide 1-oxide] had a melting point of 280 °C.

`OCCCl` [2-chloroethanol]: the melting point was -63 °C.

In turn, `O=C(O)c1cccnc1` [Niacin] returned a melting point of 237 °C.

For the compound `Cl/C=C/CCl` [1,3-dichloropropene, cis trans], the melting point is -84 °C.

As to `Cc1ccc(Cc2ccccc2)cc1` [4-benzyltoluene], the melting point was 5 °C.

`O=Cc1ccc(F)c(B(O)O)c1` [2-fluoro-5-formylbenzeneboronic acid] gave a melting point of 170 °C.

Compound `O=C(O)CNc1ccccc1` [N-phenylglycine] had a melting point of 118 °C.

In turn, `CC1(C)CC(=O)CC(=O)C1` [dimedone] showed a melting point of 148 °C.
